These results are taken from the Kinase Knowledgebase extract (Sharma et al. 2016).

SMILES strings stand for the structures.

The target of the assay is EGFR (human) (UniProt P00533).
Chain of EGFR (human) (P00533 whole entry, looked up): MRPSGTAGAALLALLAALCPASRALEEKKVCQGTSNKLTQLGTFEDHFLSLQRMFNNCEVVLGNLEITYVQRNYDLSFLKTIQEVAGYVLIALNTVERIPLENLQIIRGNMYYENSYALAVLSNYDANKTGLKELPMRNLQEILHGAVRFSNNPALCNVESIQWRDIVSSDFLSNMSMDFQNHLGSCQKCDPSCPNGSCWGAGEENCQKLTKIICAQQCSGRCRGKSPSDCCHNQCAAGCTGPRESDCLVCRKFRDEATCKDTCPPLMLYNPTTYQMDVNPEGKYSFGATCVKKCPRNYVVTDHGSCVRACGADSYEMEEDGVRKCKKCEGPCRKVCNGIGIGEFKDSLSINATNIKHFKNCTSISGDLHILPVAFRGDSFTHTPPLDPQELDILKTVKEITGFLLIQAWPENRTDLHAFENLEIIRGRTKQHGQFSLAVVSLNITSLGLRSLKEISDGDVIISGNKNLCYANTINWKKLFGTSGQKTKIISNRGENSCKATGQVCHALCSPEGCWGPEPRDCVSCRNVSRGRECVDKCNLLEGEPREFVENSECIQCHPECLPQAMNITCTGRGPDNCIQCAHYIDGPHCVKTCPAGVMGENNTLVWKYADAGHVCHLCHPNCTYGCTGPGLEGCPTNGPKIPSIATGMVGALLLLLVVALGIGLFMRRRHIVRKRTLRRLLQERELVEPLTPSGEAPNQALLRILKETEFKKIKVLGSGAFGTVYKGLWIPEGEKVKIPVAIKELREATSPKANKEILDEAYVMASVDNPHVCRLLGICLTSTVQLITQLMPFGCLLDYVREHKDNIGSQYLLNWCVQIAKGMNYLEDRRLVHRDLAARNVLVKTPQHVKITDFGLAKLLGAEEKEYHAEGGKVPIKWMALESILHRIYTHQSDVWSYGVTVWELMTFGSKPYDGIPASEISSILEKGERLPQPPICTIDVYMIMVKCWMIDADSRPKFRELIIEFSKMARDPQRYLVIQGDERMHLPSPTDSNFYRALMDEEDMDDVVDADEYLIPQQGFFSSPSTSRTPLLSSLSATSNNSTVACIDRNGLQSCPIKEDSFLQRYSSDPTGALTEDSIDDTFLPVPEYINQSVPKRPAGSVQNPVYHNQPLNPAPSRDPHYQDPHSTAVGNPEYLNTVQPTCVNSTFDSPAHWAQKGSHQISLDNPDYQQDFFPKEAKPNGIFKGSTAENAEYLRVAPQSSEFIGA
Turning to `COc1cc(/C=C(\C#N)C(=O)Nc2ccccc2)cc(Br)c1O`, the 50% inhibitory concentration (IC50) came to 1800 nM. As for `COc1cc(/C=C(\C#N)C(=O)Nc2cccc(Cl)c2)cc(C)c1O`, the IC50 stood at 420 nM. The compound `CCOc1cc(/C=C(\C#N)C(N)=O)cc(CSc2ccccc2)c1O` returned a concentration for half-maximal inhibition (IC50) of 2600 nM. For `N#C/C(=C\c1cc(Br)c(O)c(Br)c1)C(=O)Nc1cccc(Cl)c1`, the IC50 was determined as 1100 nM. For the compound `N#C/C(=C\c1cc(O)c(O)c(Br)c1Br)C(=O)Nc1cccc(Cl)c1`, the half-maximal inhibitory concentration (IC50) was found to be 280 nM. Regarding `N#C/C(=C\c1cc(O)c(O)c(C#N)c1)C(=O)Nc1cccc(Cl)c1`, the IC50 worked out at 1000 nM. Compound `N#C/C(C(=O)Nc1ccccc1)=C(\O)c1ccc(O)c(O)c1` displayed an IC50 of 960 nM.

Take `COc1cc(/C=C(\C#N)C(=O)Nc2ccccc2)cc(Cl)c1O`: the IC50 is 1600 nM. `COc1cc(/C=C(\C#N)C(=O)Nc2cccc(Cl)c2)ccc1O` had a half-maximal inhibitory concentration (IC50) of 2100 nM. As to `COc1cc(/C=C(\C#N)C(=O)Nc2cccc(Cl)c2)cc([N+](=O)[O-])c1O`, the half-maximal inhibitory concentration (IC50) worked out at 1800 nM. For `COc1cc(/C=C(\C#N)C(=O)Nc2cccc(Cl)c2)cc(F)c1O`, the IC50 came to 1600 nM.

The compound `N#C/C(=C\c1cc(O)c(O)c(C(F)(F)F)c1)C(=O)Nc1cccc(Cl)c1` had an IC50 of 2300 nM. As to `N#C/C(=C\c1cc(O)c(O)c(Cl)c1)C(=O)Nc1cccc(Cl)c1`, the concentration for half-maximal inhibition (IC50) was 680 nM. The same measure for `N#C/C(=C\c1cc(O)c(O)c(Br)c1)C(=O)Nc1cccc(Cl)c1`: 490 nM. As to `Cc1cc(/C=C(\C#N)C(=O)Nc2cccc(Cl)c2)cc(O)c1O`, the half-maximal inhibitory concentration (IC50) was found to be 1300 nM.

`N#C/C(=C\c1cc(O)c(O)c(Cl)c1)C(=O)Nc1ccccc1`: the IC50 worked out at 1200 nM. `COc1cc(/C=C(\C#N)C(=O)Nc2cccc(Cl)c2)cc(Br)c1O` displayed a concentration for half-maximal inhibition (IC50) of 1400 nM.

For `Cc1cccc(NC(=O)/C(C#N)=C/c2ccc(O)c(O)c2)c1`, the IC50 came to 2100 nM. Compound `Cc1cc(/C=C(\C#N)C(=O)Nc2cccc(Cl)c2)cc(C)c1O` came in with an IC50 of 900 nM.

`COc1cc(/C=C(\C#N)C(=O)Nc2cccc(Cl)c2)cc(S(C)(=O)=O)c1O` returned an IC50 of 1400 nM. For `COc1cc(/C=C(\C#N)C(=O)Nc2cccc(Cl)c2)cc(Cl)c1O`, the half-maximal inhibitory concentration (IC50) is 680 nM. Then `N#C/C(=C\c1cc(O)c(O)c(F)c1)C(=O)Nc1cccc(Cl)c1`, with 600 nM; and `N#C/C(=C\c1ccc(O)c(O)c1)C(=O)Nc1cccc(Cl)c1`, with 1400 nM.

As to `N#C/C(=C\c1cc(O)c(O)cc1[N+](=O)[O-])C(=O)Nc1cccc(Cl)c1`, the IC50 stood at 280 nM.

A word on the IC50: it is the midpoint of a concentration-inhibition curve. A higher IC50 goes with lower potency.
